According to ChEMBL document CHEMBL1201862, “PubChem BioAssay data set” (2004):
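Method: 48-hour compound exposure of cells in 96-well plates, five concentrations, linear interpolation of endpoints. GI50: concentration for 50% inhibition of growth.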 Calls of active or inactive are those of the source. Cut-off read from the data, not from the text of the source: active = GI50 up to about 1.1 µM and inactive = higher.

Legend:
Experiment in all cases: NCI anticancer screen, dose series, 48 h
786-0 = test system: 786-0
A498 = test system: A498
A549 = test system: A549
ACHN = test system: ACHN
CAKI-1 = test system: CAKI-1
CCRF-CEM = test system: CCRF-CEM
COLO 205 = test system: COLO 205
DLD-1 = test system: DLD-1
DMS-114 = test system: DMS-114
DMS-273 = test system: DMS-273
EKVX = test system: EKVX
HCC 2998 = test system: HCC 2998
HCT-116 = test system: HCT-116
HCT-15 = test system: HCT-15
HL-60 = test system: HL-60
HOP-62 = test system: HOP-62
HOP-92 = test system: HOP-92
HT-29 = test system: HT-29
IGROV-1 = test system: IGROV-1
K562 = test system: K562
KM-20L2 = test system: KM-20L2
KM12 = test system: KM12
LOX IMVI = test system: LOX IMVI
LXFL 529 = test system: LXFL 529
M14 = test system: M14
M19-MEL = test system: M19-MEL
MOLT-4 = test system: MOLT-4
Malme-3M = test system: Malme-3M
NCI-H226 = test system: NCI-H226
NCI-H23 = test system: NCI-H23
NCI-H460 = test system: NCI-H460
NCI-H522 = test system: NCI-H522
OVCAR-3 = test system: OVCAR-3
OVCAR-4 = test system: OVCAR-4
OVCAR-5 = test system: OVCAR-5
OVCAR-8 = test system: OVCAR-8
RPMI-8226 = test system: RPMI-8226
RXF 393 = test system: RXF 393
SF-295 = test system: SF-295
SF-539 = test system: SF-539
SK-MEL-28 = test system: SK-MEL-28
SK-MEL-2 = test system: SK-MEL-2
SK-MEL-5 = test system: SK-MEL-5
SK-OV-3 = test system: SK-OV-3
SN12C = test system: SN12C
SNB-19 = test system: SNB-19
SNB-75 = test system: SNB-75
SNB-78 = test system: SNB-78
SR = test system: SR
SW-620 = test system: SW-620
TK-10 = test system: TK-10
U-251 = test system: U-251
UACC-257 = test system: UACC-257
UACC-62 = test system: UACC-62
UO-31 = test system: UO-31
SF-268 = test system: SF-268

Cc1ccc2c(C3Cc4ccccc4N3C(=O)/C=C\C(=O)O)c(C)[nH]c2c1 (configuration not stated) was tested. Which GI50 (786-0) did it give?
Its GI50 is 47.9 µM (inactive).

And the GI50 (A498)?
The GI50 was 65.8 µM (inactive).

And the GI50 (A549)?
The GI50 was > 100 µM (inactive).

And the GI50 (ACHN)?
The GI50 was > 100 µM (inactive).

What about the GI50 (CAKI-1) of the same compound?
The GI50 was 46.5 µM (inactive).

And the GI50 (CCRF-CEM)?
Its GI50 is 23.5 µM (inactive).

What about the GI50 (COLO 205) of the same compound?
Its GI50 is 22.3 µM (inactive).

What about the GI50 (DLD-1) of the same compound?
The GI50 was 60.3 µM (inactive).

And the GI50 (DMS-114)?
The GI50 was 31.4 µM (inactive).

What about the GI50 (DMS-273) of the same compound?
The GI50 was 41.7 µM (inactive).

And the GI50 (EKVX)?
The GI50 was 78.7 µM (inactive).

What about the GI50 (HCC 2998) of the same compound?
The GI50 was 73.8 µM (inactive).

And the GI50 (HCT-116)?
The GI50 was 53 µM (inactive).

What about the GI50 (HCT-15) of the same compound?
Its GI50 is 26.9 µM.

And the GI50 (HL-60)?
Its GI50 is 19.6 µM (inactive).

And the GI50 (HOP-62)?
Its GI50 is 30.1 µM (inactive).

What about the GI50 (HOP-92) of the same compound?
Its GI50 is 30.8 µM (inactive).

What about the GI50 (HT-29) of the same compound?
The GI50 was 73.5 µM (inactive).

What about the GI50 (IGROV-1) of the same compound?
Its GI50 is 41 µM (inactive).

What about the GI50 (K562) of the same compound?
Its GI50 is 22.2 µM (inactive).

And the GI50 (KM-20L2)?
The GI50 was > 100 µM (inactive).

What about the GI50 (KM12) of the same compound?
Its GI50 is 35.2 µM (inactive).

What about the GI50 (LOX IMVI) of the same compound?
The GI50 was 30.6 µM (inactive).

And the GI50 (LXFL 529)?
Its GI50 is 18.7 µM (inactive).

And the GI50 (M14)?
Its GI50 is 44.4 µM (inactive).

And the GI50 (M19-MEL)?
Its GI50 is 67.5 µM (inactive).

What about the GI50 (MOLT-4) of the same compound?
The GI50 was 29.5 µM (inactive).

What about the GI50 (Malme-3M) of the same compound?
Its GI50 is 33.5 µM (inactive).

What about the GI50 (NCI-H226) of the same compound?
Its GI50 is > 100 µM (inactive).

And the GI50 (NCI-H23)?
The GI50 was 67.9 µM (inactive).

What about the GI50 (NCI-H460) of the same compound?
The GI50 was > 100 µM (inactive).

What about the GI50 (NCI-H522) of the same compound?
Its GI50 is 24.7 µM (inactive).

What about the GI50 (OVCAR-3) of the same compound?
Its GI50 is 19.6 µM (inactive).

And the GI50 (OVCAR-4)?
The GI50 was > 100 µM (inactive).

And the GI50 (OVCAR-5)?
Its GI50 is > 100 µM (inactive).

And the GI50 (OVCAR-8)?
Its GI50 is 30.6 µM (inactive).

And the GI50 (RPMI-8226)?
Its GI50 is 24.4 µM (inactive).

What about the GI50 (RXF 393) of the same compound?
Its GI50 is 29.9 µM (inactive).

What about the GI50 (SF-295) of the same compound?
Its GI50 is 28.8 µM (inactive).

What about the GI50 (SF-539) of the same compound?
Its GI50 is 47.2 µM (inactive).

What about the GI50 (SK-MEL-28) of the same compound?
Its GI50 is 59 µM (inactive).

What about the GI50 (SK-MEL-2) of the same compound?
The GI50 was 17.5 µM (inactive).

What about the GI50 (SK-MEL-5) of the same compound?
The GI50 was 41.4 µM (inactive).

And the GI50 (SK-OV-3)?
The GI50 was > 100 µM (inactive).

What about the GI50 (SN12C) of the same compound?
Its GI50 is 49.8 µM (inactive).

And the GI50 (SNB-19)?
The GI50 was 40.7 µM (inactive).

What about the GI50 (SNB-75) of the same compound?
The GI50 was 35.4 µM (inactive).

And the GI50 (SNB-78)?
The GI50 was 17.5 µM (inactive).

What about the GI50 (SR) of the same compound?
The GI50 was 25.1 µM (inactive).

And the GI50 (SW-620)?
The GI50 was 33.1 µM (inactive).

And the GI50 (TK-10)?
The GI50 was 56.1 µM (inactive).

And the GI50 (U-251)?
The GI50 was 44.6 µM (inactive).

And the GI50 (UACC-257)?
Its GI50 is 41.3 µM (inactive).

What about the GI50 (UACC-62) of the same compound?
Its GI50 is 29.2 µM (inactive).

And the GI50 (UO-31)?
Its GI50 is 44.3 µM (inactive).

Which GI50 (786-0) does the source give for OCC(O)C(O)C(O)c1nnn[nH]1 (configuration not stated) here?
Its GI50 is > 100 µM (inactive).

And the GI50 (ACHN)?
The GI50 was > 100 µM (inactive).

What about the GI50 (CAKI-1) of the same compound?
The GI50 was > 100 µM (inactive).

What about the GI50 (CCRF-CEM) of the same compound?
The GI50 was > 100 µM (inactive).

And the GI50 (COLO 205)?
The GI50 was > 100 µM (inactive).

What about the GI50 (DLD-1) of the same compound?
The GI50 was > 100 µM (inactive).

What about the GI50 (DMS-114) of the same compound?
Its GI50 is > 100 µM (inactive).

What about the GI50 (DMS-273) of the same compound?
The GI50 was > 100 µM (inactive).

What about the GI50 (EKVX) of the same compound?
Its GI50 is > 100 µM (inactive).

What about the GI50 (HCT-116) of the same compound?
Its GI50 is > 100 µM (inactive).

What about the GI50 (HCT-15) of the same compound?
Its GI50 is greater than 100 µM.

And the GI50 (HL-60)?
The GI50 was > 100 µM (inactive).

What about the GI50 (HOP-62) of the same compound?
The GI50 was > 100 µM (inactive).

And the GI50 (HOP-92)?
Its GI50 is > 100 µM (inactive).

And the GI50 (HT-29)?
The GI50 was > 100 µM (inactive).

And the GI50 (IGROV-1)?
Its GI50 is > 100 µM (inactive).

What about the GI50 (K562) of the same compound?
The GI50 was > 100 µM (inactive).

And the GI50 (KM12)?
The GI50 was > 100 µM (inactive).

What about the GI50 (LOX IMVI) of the same compound?
Its GI50 is > 100 µM (inactive).

And the GI50 (LXFL 529)?
The GI50 was > 100 µM (inactive).

What about the GI50 (M14) of the same compound?
The GI50 was > 100 µM (inactive).

And the GI50 (M19-MEL)?
Its GI50 is > 100 µM (inactive).

And the GI50 (MOLT-4)?
The GI50 was > 100 µM (inactive).

And the GI50 (Malme-3M)?
The GI50 was > 100 µM (inactive).

And the GI50 (NCI-H226)?
The GI50 was 34.8 µM (inactive).

What about the GI50 (NCI-H23) of the same compound?
Its GI50 is > 100 µM (inactive).

And the GI50 (NCI-H460)?
The GI50 was > 100 µM (inactive).

And the GI50 (NCI-H522)?
The GI50 was > 100 µM (inactive).

What about the GI50 (OVCAR-3) of the same compound?
The GI50 was > 100 µM (inactive).

What about the GI50 (OVCAR-4) of the same compound?
The GI50 was > 100 µM (inactive).

What about the GI50 (OVCAR-5) of the same compound?
Its GI50 is > 100 µM (inactive).

And the GI50 (OVCAR-8)?
The GI50 was > 100 µM (inactive).

And the GI50 (RPMI-8226)?
Its GI50 is > 100 µM (inactive).

What about the GI50 (SF-268) of the same compound?
The GI50 was > 100 µM (inactive).

And the GI50 (SF-295)?
The GI50 was > 100 µM (inactive).

What about the GI50 (SF-539) of the same compound?
Its GI50 is > 100 µM (inactive).

What about the GI50 (SK-MEL-2) of the same compound?
Its GI50 is > 100 µM (inactive).

And the GI50 (SK-MEL-5)?
The GI50 was > 100 µM (inactive).

And the GI50 (SK-OV-3)?
Its GI50 is > 100 µM (inactive).

What about the GI50 (SN12C) of the same compound?
Its GI50 is > 100 µM (inactive).

What about the GI50 (SNB-75) of the same compound?
The GI50 was > 100 µM (inactive).

What about the GI50 (SNB-78) of the same compound?
Its GI50 is > 100 µM (inactive).

What about the GI50 (SR) of the same compound?
Its GI50 is > 100 µM (inactive).

What about the GI50 (SW-620) of the same compound?
Its GI50 is > 100 µM (inactive).

What about the GI50 (U-251) of the same compound?
Its GI50 is > 100 µM (inactive).

What about the GI50 (UACC-62) of the same compound?
Its GI50 is > 100 µM (inactive).

And the GI50 (UO-31)?
Its GI50 is > 100 µM (inactive).
